Values of other authors as cited in patent publication EP0811056B1, “PEPTIDES FOR TISSUE AND CELL CULTURE MEDIA” (QUEST INTERNATIONAL B.V., priority 1995, dated 1996).

Conditions: on a glutamine basis

Q: For Glycyl-L-glutamine, which “amount of the dipeptide needed compared with free glutamine to obtain the same result” value is on record?
A: up to 6 times
